Experimental data from patent US20250313572A1, “MACROCYCLIC MCL-1 INHIBITORS AND METHODS OF USE” (AbbVie Inc., priority 2017, published 2025).
Like-named read-outs stand apart in the source and are kept apart here.

Tests used:
GST-MCL-1 = GST-MCL-1 (Homo sapiens, UniProt Q07820); assay: TR-FRET MCL-1 binding assay (competition with probe F-Bak)
Experimental: Tb-anti-GST antibody was purchased from Invitrogen (Catalog No. PV4216).
For the assay, an acoustic dispenser was used to prepare dilution series from 10 mM test compounds in 100% DMSO and directly transfer 160 nL into low volume 384-well assay plates. 8 μL of a protein/probe/antibody mix was then added to each well resulting in final concentrations listed below: • Test compound: 11 three-fold dilutions beginning at 25 μM
The samples were then mixed on a shaker for 1 minute and incubated for an additional 2 hours at room temperature. For each assay plate, a probe/antibody and protein/antibody/probe mixture were included as a negative and a positive control, respectively. Fluorescence was measured on the Envision (Perkin Elmer) using a 340/35 nm excitation filter and 520/525 (F-Bak) and 495/510 nm (Tb-labeled anti-his antibody) emission filters. […] The TR-FRET assay can be performed in the presence of varying concentrations of human serum (HS) or fetal bovine serum (FBS). Compounds were tested both without HS and in the presence of 10% HS.

[1] = tested on: AMO-1 human multiple myeloma tumor cell line; assay: AMO-1 cell viability assay (CellTiter-Glo, 24 hours); format: cell-based; details: Homo sapiens, AMO1, 24 h, read-out: AMO-1 Viability IC50 (μM, 10% FBS), 10% FBS, 24 hours of compound treatment
[2] = tested on: NCI-H929 human multiple myeloma tumor cell line; assay: NCI-H929 cell viability assay (CellTiter-Glo, 24 hours); format: cell-based; details: Homo sapiens, NCI-H929, 24 h, read-out: H929 Viability IC50 (μM, 10% FBS), 10% FBS, 24 hours of compound treatment
Experimental: Each concentration was tested in duplicate at least 3 independent times. A luminescent signal proportional to the number of viable cells following 24 hours of compound treatment was determined using the CellTiter-Glo® Luminescent Cell Viability Assay according to the manufacturer's recommendations (Promega Corp., Madison, WI). The plates were read in a Perkin Elmer Envision using a Luminescence protocol. To generate dose response curves the data is normalized to percent viability by setting the averages of the staurosporine (10 μM) and DMSO only control wells to 0% and 100% viability respectively.

[3] = MCL-1 Binding Ki (nM, 10% HS), in the presence of 10% HS (human serum)
[4] = without HS, read-out: MCL-1 Binding Ki

Sequence of GST-MCL-1 (Q07820 whole entry): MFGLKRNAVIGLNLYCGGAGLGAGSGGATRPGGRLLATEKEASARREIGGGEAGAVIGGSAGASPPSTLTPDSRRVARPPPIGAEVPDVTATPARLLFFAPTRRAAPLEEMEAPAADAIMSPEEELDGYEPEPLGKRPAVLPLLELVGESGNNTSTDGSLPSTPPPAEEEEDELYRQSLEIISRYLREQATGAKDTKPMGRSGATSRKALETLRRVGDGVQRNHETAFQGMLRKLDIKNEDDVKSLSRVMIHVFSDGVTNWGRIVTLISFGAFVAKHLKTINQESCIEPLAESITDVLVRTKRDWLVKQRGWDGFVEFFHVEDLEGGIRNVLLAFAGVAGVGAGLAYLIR

In the case of `Cc1c(Cl)c2c(Cl)c(C)c1-c1c(-c3ccc(F)cc3)sc3ncnc(c13)O[C@@H](C(=O)O)Cc1cc(ccc1OCc1ccnc(-c3cccc(S(=O)(=O)N4CCOCC4)c3)n1)OC[C@@H](CN1CCN(C)CC1)O2` [Example 149, (7R,16R)-19,23-dichloro-1-(4-fluorophenyl)-20,22-dimethyl-16-[(4-methylpiperazin-1-yl)methyl]-10-({2-[3-(morpholine-4-sulfonyl)phenyl]pyrimidin-4-yl}methoxy)-7,8,15,16-tetrahydro-18,21-etheno-13,9-(metheno)-6,14,17-trioxa-2-thia-3,5-diazacyclononadeca[1,2,3-cd]indene-7-carboxylic Acid], the Ki (GST-MCL-1; [3]) is reported as 0.14 nM, the Ki (GST-MCL-1; [4]) is reported as 0.006 nM and the IC50 [1] is reported as 0.000363 µM. It also gave an IC50 [2] of 0.0014 µM.
`Cc1c(Cl)c2c(Cl)c(C)c1-c1c(-c3ccc(F)cc3)sc3ncnc(c13)O[C@@H](C(=O)O)Cc1cc(ccc1OCc1ccnc(N3CCC(CC(=O)O)CC3)n1)OC[C@@H](CN1CCN(C)CC1)O2` [Example 49, (7R,16R)-10-({2-[4-(carboxymethyl)piperidin-1-yl]pyrimidin-4-yl}methoxy)-19,23-dichloro-1-(4-fluorophenyl)-20,22-dimethyl-16-[(4-methylpiperazin-1-yl)methyl]-7,8,15,16-tetrahydro-18,21-etheno-13,9-(metheno)-6,14,17-trioxa-2-thia-3,5-diazacyclononadeca[1,2,3-cd]indene-7-carboxylic Acid] showed a Ki (GST-MCL-1; [3]) of 0.775 nM, a Ki (GST-MCL-1; [4]) of 0.039 nM and an IC50 [1] of 0.0222 µM. It also gave an IC50 [2] of 0.0431 µM.
`Cc1c2ccc(c1Cl)O[C@H](CN1CCN(C)CC1)COc1ccc(OCc3ccnc(-c4ccc(CCC(=O)O)cc4)n3)c(c1)C[C@H](C(=O)O)Oc1ncnc3sc(-c4ccc(F)cc4)c-2c13` (atropisomer, axis not shown) [Example 17, (7R,16R,21S)-10-({2-[4-(2-carboxyethyl)phenyl]pyrimidin-4-yl}methoxy)-19-chloro-1-(4-fluorophenyl)-20-methyl-16-[(4-methylpiperazin-1-yl)methyl]-7,8,15,16-tetrahydro-18,21-etheno-13,9-(metheno)-6,14,17-trioxa-2-thia-3,5-diazacyclononadeca[1,2,3-cd]indene-7-carboxylic Acid] gave a Ki (GST-MCL-1; [3]) of 0.246 nM, a Ki (GST-MCL-1; [4]) of 0.015 nM and an IC50 [1] of 0.0155 µM. It also gave an IC50 [2] of 0.0298 µM.
`Cc1c(Cl)c2c(Cl)c(C)c1-c1c(-c3ccc(F)cc3)sc3ncnc(c13)O[C@@H](C(=O)O)Cc1cc(ccc1OCc1ccnc(-c3ccc(OC[C@H]4CN(C)CCCO4)cc3)n1)OC[C@@H](CN1CCN(C)CC1)O2` [Example 175, (7R,16R)-19,23-dichloro-1-(4-fluorophenyl)-20,22-dimethyl-10-{[2-(4-{[(2R)-4-methyl-1,4-oxazepan-2-yl]methoxy}phenyl)pyrimidin-4-yl]methoxy}-16-[(4-methylpiperazin-1-yl)methyl]-7,8,15,16-tetrahydro-18,21-etheno-13,9-(metheno)-6,14,17-trioxa-2-thia-3,5-diazacyclononadeca[1,2,3-cd]indene-7-carboxylic Acid] showed a Ki (GST-MCL-1; [3]) of 0.122 nM, a Ki (GST-MCL-1; [4]) of under 0.01 nM and an IC50 [1] of 0.00164 µM. The IC50 [2] was 0.00573 µM.
`COCCOCCOCCOCCOCCOC[C@H]1CN(c2nccc(COc3ccc4cc3C[C@H](C(=O)O)Oc3ncnc5sc(-c6ccc(F)cc6)c(c35)-c3c(C)c(Cl)c(c(Cl)c3C)O[C@H](CN3CCN(C)CC3)CO4)n2)CCO1` [Example 83, (7R,16R)-19,23-dichloro-1-(4-fluorophenyl)-10-({2-[(2R)-2-(2,5,8,11,14,17-hexaoxaoctadecan-1-yl)morpholin-4-yl]pyrimidin-4-yl}methoxy)-20,22-dimethyl-16-[(4-methylpiperazin-1-yl)methyl]-7,8,15,16-tetrahydro-18,21-etheno-13,9-(metheno)-6,14,17-trioxa-2-thia-3,5-diazacyclononadeca[1,2,3-cd]indene-7-carboxylic Acid] was tested, and the IC50 [2] was 0.0026 µM.
Molecule `Cc1c(Cl)c2c(Cl)c(C)c1-c1c(-c3ccc(F)cc3)sc3ncnc(c13)O[C@@H](C(=O)O)Cc1cc(ccc1OCc1ccnc(-c3ccc(OCCN4CCOCC4)cc3)n1)OC[C@@H](CN1CCN(C)CC1)O2` [Example 168, (7R,16R)-19,23-dichloro-1-(4-fluorophenyl)-20,22-dimethyl-16-[(4-methylpiperazin-1-yl)methyl]-10-[(2-{4-[2-(morpholin-4-yl)ethoxy]phenyl}pyrimidin-4-yl)methoxy]-7,8,15,16-tetrahydro-18,21-etheno-13,9-(metheno)-6,14,17-trioxa-2-thia-3,5-diazacyclononadeca[1,2,3-cd]indene-7-carboxylic Acid] has a Ki (GST-MCL-1; [3]) of 0.671 nM and a Ki (GST-MCL-1; [4]) of 0.025 nM.
In the case of `COCCOCCOc1ccc(-c2ccccc2OC)nc1COc1ccc2cc1C[C@H](C(=O)O)Oc1ncnc3sc(-c4ccc(F)cc4)c(c13)-c1c(C)c(Cl)c(c(Cl)c1C)O[C@H](CN1CCN(C)CC1)CO2` [Example 178, (7R,16R)-19,23-dichloro-1-(4-fluorophenyl)-10-({3-[2-(2-methoxyethoxy)ethoxy]-6-(2-methoxyphenyl)pyridin-2-yl}methoxy)-20,22-dimethyl-16-[(4-methylpiperazin-1-yl)methyl]-7,8,15,16-tetrahydro-18,21-etheno-9,13-(metheno)-6,14,17-trioxa-2-thia-3,5-diazacyclononadeca[1,2,3-cd]indene-7-carboxylic Acid], the IC50 [1] is reported as 0.152 µM and the IC50 [2] is reported as 0.37 µM.
Work on `Cc1c(Cl)c2c(Cl)c(C)c1-c1c(-c3ccc(F)cc3)sc3ncnc(c13)O[C@@H](C(=O)O)Cc1cc(ccc1OCc1ccnc([C@H]3CC[C@H](OCCOCC4COCCO4)CC3)n1)OC[C@@H](CN1CCN(C)CC1)O2` (stereo partly drawn) [Example 92, (7R,16R)-19,23-dichloro-10-({2-[(1r,4r)-4-{2-[(1,4-dioxan-2-yl)methoxy]ethoxy}cyclohexyl]pyrimidin-4-yl}methoxy)-1-(4-fluorophenyl)-20,22-dimethyl-16-[(4-methylpiperazin-1-yl)methyl]-7,8,15,16-tetrahydro-18,21-etheno-13,9-(metheno)-6,14,17-trioxa-2-thia-3,5-diazacyclononadeca[1,2,3-cd]indene-7-carboxylic Acid] yielded an IC50 [1] of 0.000223 µM and an IC50 [2] of 0.00031 µM.
With `Cc1c(Cl)c2c(Cl)c(C)c1-c1c(-c3ccc(F)cc3)sc3ncnc(c13)O[C@@H](C(=O)O)Cc1cc(ccc1OCc1ccnc(-c3ccc(O[C@H]4CO[C@H]5[C@@H]4OC[C@@H]5O)cc3)n1)OC[C@@H](CN1CCN(C)CC1)O2` [Example 174, (7R,16R)-19,23-dichloro-1-(4-fluorophenyl)-10-{[2-(4-{[(3S,3aR,6S,6aR)-6-hydroxyhexahydrofuro[3,2-b]furan-3-yl]oxy}phenyl)pyrimidin-4-yl]methoxy}-20,22-dimethyl-16-[(4-methylpiperazin-1-yl)methyl]-7,8,15,16-tetrahydro-18,21-etheno-13,9-(metheno)-6,14,17-trioxa-2-thia-3,5-diazacyclononadeca[1,2,3-cd]indene-7-carboxylic Acid] the Ki (GST-MCL-1; [3]) was 0.2 nM and the Ki (GST-MCL-1; [4]) was 0.008 nM.
In the case of `Cc1c(Cl)c2c(Cl)c(C)c1-c1c(-c3ccc(F)cc3)sc3ncnc(c13)O[C@@H](C(=O)O)Cc1cc(ccc1OCc1ccnc(-c3ccc(OC[C@@H]4CN(C)CCCO4)cc3)n1)OC[C@@H](CN1CCN(C)CC1)O2` [Example 173, (7R,16R)-19,23-dichloro-1-(4-fluorophenyl)-20,22-dimethyl-10-{[2-(4-{[(2S)-4-methyl-1,4-oxazepan-2-yl]methoxy}phenyl)pyrimidin-4-yl]methoxy}-16-[(4-methylpiperazin-1-yl)methyl]-7,8,15,16-tetrahydro-18,21-etheno-13,9-(metheno)-6,14,17-trioxa-2-thia-3,5-diazacyclononadeca[1,2,3-cd]indene-7-carboxylic Acid], the IC50 [1] is reported as 0.00114 µM and the IC50 [2] is reported as 0.00452 µM.
`Cc1c(Cl)c2c(Cl)c(C)c1-c1c(-c3ccc(F)cc3)sc3ncnc(c13)O[C@@H](C(=O)O)Cc1cc(ccc1OCc1ccnc(OC[C@@H]3CN(C)CCCO3)n1)OC[C@@H](CN1CCN(C)CC1)O2` [Example 177, (7R,16R)-19,23-dichloro-1-(4-fluorophenyl)-20,22-dimethyl-10-[(2-{[(2S)-4-methyl-1,4-oxazepan-2-yl]methoxy}pyrimidin-4-yl)methoxy]-16-[(4-methylpiperazin-1-yl)methyl]-7,8,15,16-tetrahydro-18,21-etheno-13,9-(metheno)-6,14,17-trioxa-2-thia-3,5-diazacyclononadeca[1,2,3-cd]indene-7-carboxylic Acid] gave an IC50 [1] of 0.00422 µM and an IC50 [2] of 0.00929 µM.
